{
  "source": "ChEMBL document CHEMBL3108688",
  "about": "“4-Thiazolidinones: the advances continue…” (Eur J Med Chem, 2014)",
  "system": "Tacaribe virus",
  "assay": "Antiviral activity against Tacaribe virus TRVL11573",
  "assay_type": "functional, organism-based",
  "details": "Mammarenavirus tacaribeense",
  "data": [
    {"smiles": "COc1ccc(NC(=O)CC2SC(N3N=C(c4ccccc4)CC3c3ccc(OC)cc3)=NC2=O)cc1", "note": "(stereo unspecified)", "values": [
      {"measurement": "EC50", "result": 0.71, "unit": "µg/mL"}
    ]}
  ]
}
